Where “and” joins values, the source holds several entries; their conditions need not be identical. Identical values can stand only once.
Experiments:
[1] = test system: Prostaglandin (PGE2) production in mouse peritoneal macrophages; test: Inhibition of PGE2 production in mouse peritoneal macrophages; assay type: cell-based; conditions: 10^-5 M phorbol-myristate-acetate, 2 hours, repeated lines per PLI type
Experimental: Peritoneal cells from NMRI mice were obtained by lavage with Dulbeccos MEM. The cells were washed and plated at 2×10^4 /well in Dulbeccos MEM with FCS in 96-well plates. After 2 hours (or overnight) incubation at 37°, the adherent macrophages were washed 3 times. The medium was replaced by Dulbeccos MEM with lactalbumin hydrolysate. Test compounds were suspended in water. One hour later, the macrophages were stimulated with 10^-5 M phorbol-myristate-acetate. Another 2 hours later, PGE2 and LTC4 were measured int he supernatants by radioimmunoassay. The results are expressed as IC50 of PGE2 - and LTC4 -production.

[2] = test system: crude phospholipase A2 (extracted from human polymorphonuclear leukocytes); test: Inhibition of phospholipase A2 from human PMN leukocytes (14C-oleate-labelled E. coli substrate); assay type: biochemical; conditions: 37°, 60 min, pH 7.0, 0.5 mmol/l CaCl2
Experimental: The reaction is stopped by extraction with modified Dole reagent. Free oleic acid is separated on a disposable silicic acid (Kieselgel G 100) column and the radioactivity is determined. Percent inhibition is calculated after subtracting a blank (assay mixture without enzyme).

[3] = test system: human platelet aggregation; test: Inhibition of human platelet aggregation in platelet-rich plasma; assay type: cell-based; conditions: human PRP
Experimental: (§1) Platelet-rich plasma (PRP) was obtained from human donors by centrifugation. Platelet aggregation at 37° C. and TXB2 secretion were induced by the addition of an aggregating agent (inducer) as indicated in the table below. Platelet aggregation was determined by measurement of the suspension optical density in a double beam aggregometer. Results are expressed as % of the control aggregation obtained by the addition of the inducer in the absence of an inhibitor. TXB2, secretion to the extracellular medium, was determined by radioimmunoassay. When the test PLI was applied, the PRP was incubated with the inhibitor for 10 min at 37° C., prior to induction of aggregation.

[4] = test system: prostacyclin (6-keto-PGF1 α) production in cultured adrenal capillary endothelial cells; test: Inhibition of prostacyclin production in endothelial cells; assay type: cell-based; conditions: for % Inhibition of prostacyclin production: PLI 1 mg/ml + Bradykinin 1 μM; for 6-keto-PFG1α PROD.: PLI 1 mg/ml + Bradykinin 1 μM (Bradykinin alone 201.9 ± 21.6)
Experimental: Method: Cultured adrenal capillary endothelial cells were stimulated to produce prostacyclin (6-keto-PGF1 α) by bradykinin in the absence and presence of CMS or HME. The prostacyclin, secreted to the culture medium was determined by radioimmunoassay.

[5] = test system: adjuvant arthritis (Freunds adjuvant paw swelling); test: Adjuvant arthritis model of inflammation; assay type: in vivo, rat; conditions: for gross signs of toxicity: 70 mg/kg subcutaneously, two week dosing period; for paw diameter (measured with calipers): arthritic animals, by day 14; for paw diameter (measured with calipers) / decrease in paw swelling, injected paw / decrease in paw swelling, noninjected paw: 70 mg/kg subcutaneously day 3 to day 14; for decrease in paw swelling, injected paw / decrease in paw swelling, noninjected paw: arthritic rats, day 14
Experimental: Two compounds (CMS and HMS) were tested in the adjuvant arthritis model of inflammation. Paw swelling is induced by an injection of Freunds adjuvant into the right hind paw. Systemic inflammation spreads to the controlateral paw within 2 weeks. The compounds were administered subcutaneously from day 3 to day 14 at a dose of 70 mg/kg. […] CMS decreased noninjected paw swelling 51% (P≤0.005) and injected paw swelling 30% (P≤0.001). […] No drug treated group lost weight compared to the arthritic controls.

[6] = test system: PLA2-oedema (purified phospholipase A2 from porcine pancreas, subplantar); test: Inhibition of PLA2-oedema in rats (paw plethysmometry); assay type: in vivo; conditions: rat
Experimental: By subplantar injection of 200 U PLA2 (ca. 0.3 mg purified phospholipase A2 from porcine pancreas, Boehringer Mannheim) in 100 μl physiological saline into the left hind paw of male or female rats (LEW/TIF, ca. 200 g body weight, 5 animals per group) a localized edema was induced and its intensity was determined plethysmometrically 3 and 5 hours later. Test compounds were suspended in 0.75% methylcellulose and administered i.p. (5 ml/kg) 1 hour prior to the PLA2 injection. The edema-inhibiting effect was expressed as percent inhibition in comparison to vehicle-treated controls.

[7] = test system: Phospholipase A2 (PLA2) activity in Rat Basophilic Leukemia (RBL) cells; test: Inhibition of PLA2 activity in RBL cells (C6-NBD-PC hydrolysis); assay type: cell-based
Experimental: Cultured RBL cells were incubated with the fluorescent substrate of PLA2 (C6 -NBD-PC) as described by Yedgar et al. (1986) FEBS Letters, 200:165-168. After 1 hour of incubation, the cultures were subjected to lipid extraction and determination of C6 -NBD-PC hydrolysed as previously described.

[8] = test system: Serotonin secretion in Rat Basophilic Leukemia (RBL) cells; test: Inhibition of serotonin secretion in RBL cells; assay type: cell-based; conditions: HMS 1.5 mg/ml, ionophore A23187 0.3 μM
Experimental: Cultured RBL were incubated with tritiated serotonin (10^7 DPM/ml/10^6 cell) for 2 hours, then washed. Serotinin secretion was activated in the absence or presence of HMS (1.5 mg/ml) by the addition of the ionophore A23187 (0.3 μM) for the desired time. The radioactive serotonin accumulated in the culture medium during the activation period was determined. In the absence of HMS, approximately 1.3 and 1.9 DPM×10^5 was excreted in 15 and 30 minutes, respectively, whereas in the presence of the HMS, only about 0.3 DPM×10^5 was secreted in each of these time periods.

[9] = test system: Thromboxane (TXB2) secretion by human platelets; test: Inhibition of thromboxane (TXB2) secretion by human platelets; assay type: cell-based; conditions: human PRP
Experimental: as §1

[10] = Epinephrine 0.8 μg/ml, PLI 1.5 mg/ml
[11] = 100 mg/kg i.p., 1 hour prior to PLA2
[12] = 1 × 20 mg/kg i.p., 1 hour prior to PLA2
[13] = line (e), 1 × i.p., dose not given

Dextranhydrazide-dodecanedioic-phosphatidylserine [Dex-Ac-PS, reference compound]
IC50 for PGE2 production [1]: 300 mg/L and 600 mg/L
Inhibition of PLA2 from human PMN, IC50 [2]: 720 mg/L
Aggregation (% of control) ([3]; ADP 2 μg/ml, PLI 3.0 mg/ml): 14 % of control
Aggregation (% of control) ([3]; Epinephrine 0.8 μg/ml, PLI 6.5 mg/ml): 19 % of control

carboxymethylcellulosephosphatidylserine [CMS]
IC50 for PGE2 production [1]: 100 mg/L and > 100 mg/L
Inhibition of PLA2 from human PMN, IC50 [2]: 40 mg/L
Aggregation (% of control) [3, 10]: 0 % of control
% Inhibition of prostacyclin production [4]: 61%
6-keto-PFG1α PROD. [4]: 78.7 ± 6.8 PG/10^-6 Cells
gross signs of toxicity [5]: no gross signs of toxicity
paw diameter (measured with calipers) [5]: significantly decreased
decrease in paw swelling, injected paw [5]: 30%
decrease in paw swelling, noninjected paw [5]: 51%
% Inhibition of PLA2-oedema, 3 hours [6, 11]: 51%
% Inhibition of PLA2-oedema, 5 hours [6, 11]: 54%
% Inhibition of PLA2-oedema, 3 hours [6, 12]: 15%
% Inhibition of PLA2-oedema, 5 hours [6, 12]: 29%

alginic acid phosphatidylethanolamine [ALE]
Aggregation (% of control) ([3]; Epinephrine 0.8 μg/ml, PLI 0.7 mg/ml): 9 % of control

Hemaccellphosphatidylserine [HMS]
IC50 for PGE2 production [1]: > 100 mg/L
Inhibition of PLA2 from human PMN, IC50 [2]: 57 mg/L
Aggregation (% of control) ([3]; Epinephrine 0.8 μg/ml, PLI 1.2 mg/ml): 2 % of control
gross signs of toxicity [5]: no gross signs of toxicity
paw diameter (measured with calipers) [5]: significantly decreased
decrease in paw swelling, injected paw [5]: 19%
decrease in paw swelling, noninjected paw [5]: 43%
C6-NBD-PC hydrolysed ([7]; HMS 0.5 mg/ml (control 1.42 ± 0.19)): 0.37 ± 0.04 nmole/mg cell protein-hour
C6-NBD-PC hydrolysed ([7]; HMS 1.5 mg/ml (control 1.42 ± 0.19)): 0.11 ± 0.07 nmole/mg cell protein-hour
radioactive serotonin secreted to culture medium ([8]; 15 minutes (without HMS approx. 1.3)): about 0.3 DPM×10^5
radioactive serotonin secreted to culture medium ([8]; 30 minutes (without HMS approx. 1.9)): about 0.3 DPM×10^5
% Inhibition of PLA2-oedema, 3 hours [6, 11]: 63%
% Inhibition of PLA2-oedema, 5 hours [6, 11]: 80%
% Inhibition of PLA2-oedema, 3 hours [6, 12]: 36%
% Inhibition of PLA2-oedema, 5 hours [6, 12]: 62%

alginic acid phosphatidylserine [ALS]
Aggregation (% of control) [3, 10]: 5 % of control

Hemaccellphosphatidylethanolamine [HME]
Aggregation (% of control) ([3]; ADP 2 μg/ml, PLI 0.70 mg/ml): 6 % of control
Aggregation (% of control) ([3]; Collagen 40 μg/ml, PLI 0.85 mg/ml): 13 % of control
Aggregation (% of control) ([3]; Epinephrine 0.8 μg/ml, PLI 0.75 mg/ml): 9 % of control
TXB2 secreted ([9]; ADP 2 μg/ml, PLI 0.70 mg/ml (without PLI 82 ± 4)): 14 ± 7 ng/mL
TXB2 secreted ([9]; Collagen 40 μg/ml, PLI 0.85 mg/ml (without PLI 42 ± 6)): 17 ± 7 ng/mL
% Inhibition of prostacyclin production [4]: 82%
6-keto-PFG1α PROD. [4]: 36.4 ± 7.2 PG/10^-6 Cells
% Inhibition of PLA2-oedema, 3 hours [6, 13]: 0%
% Inhibition of PLA2-oedema, 5 hours [6, 13]: 0%
% Inhibition of PLA2-oedema, 3 hours ([6]; line (f), i.p., dose not given): 27%
% Inhibition of PLA2-oedema, 5 hours ([6]; line (f), i.p., dose not given): 25%
% Inhibition of PLA2-oedema, 3 hours ([6]; line (g), i.p., dose not given): 53%
% Inhibition of PLA2-oedema, 5 hours ([6]; line (g), i.p., dose not given): 45%

carboxymethylcellulose phosphatidylethanolamine [CME]
Aggregation (% of control) [3, 10]: 0 % of control

Reference: patent US5064817A, “Phospholipase A2 inhibiting compositions and their use” (Yissum Research Development Company of Hebrew University of …, priority 1987, dated 1991)
